Assay results published in patent publication US5362634A, “Process for producing A83543 compounds” (DowElanco, priority 1991, dated 1994).

Experiments:
[1] = tested on: neonate CBW (cotton bollworm) larvae; assay: Percent control of neonate CBW larvae by A83543 components, topical pipet method; type: in vivo, Heliothis zea; conditions: topical, 24 h, read-out: Percent Control
Method: (§1) Each test compound was formulated by dissolving the compound in an acetone/alcohol (1:1) mixture containing 23 g of "Toximul R" (sulfonate/nonionic emulsifier blend) and 13 g of "Toximul S" (sulfonate/nonionic emulsifier blend) per liter. These mixtures were then diluted with water to give the indicated concentrations.
(§2) Additional insects were evaluated using similar formulations and evaluation procedures, with the exceptions noted.
(§3) After standard exposure periods, percent mortality was evaluated. The following abbreviations are used:
^1 Treatments with the same letter in parentheses are similar at the
^2 Topical pipet method with 20 larve/replicate and 4 replicates; one
day between treatment and observation.

adult BW (boll weevil) = assay: Topical test against adult BW; type: in vivo; conditions: Anthonomus grandis, 72 h, 3 days
Method: as §1, §2, §3
^a One replicate; observed 3 days after treatment
^b Formulated A83543A (1 mL) poured over adult insects in a Petri

[2] = tested on: CRW (Southern corn rootworm); assay: Greenhouse test against CRW; type: in vivo, Diabrotica undecimpunctata howardi
Method: as §1, §2
(§4) After standard exposure periods, percent mortality was evaluated.

CLH (corn leafhopper) = assay: Greenhouse test against CLH; type: in vivo, Dalbulus maidis
Method: as §1, §2, §4

[3] = tested on: mixture of soybean loopers (75%) and fall armyworm (25%); assay: Field trial, soybean loopers and fall armyworm on soybean; type: in vivo
Method: A83543A was evaluated in field trials.

blow fly larvae (LBF) = assay: In vitro efficacy, exposure of LBF to chemically added serum samples
Source text: ^1 Percent insect mortality following 24 to 48 hrs. in vitro exposure
to chemically added serum samples

adult stable fly (ASF) = assay: Guinea pig systemic test, adult stable fly; type: in vivo, Stomoxys calcitrans
Method: Adult guinea pigs are used in this test system. The compounds to be tested are dissolved in aqueous polyvinyl pyrrolidone or in polyethylene glycol 200, and an appropriate amount of the solution is administered either orally or by intraperitoneal injection.
(§5) Blood is drawn from the guinea pigs at 30 minutes except as noted, and the samples of blood are centrifuged. Dental wicks are saturated with the blood serum, and then exposed in Petri dishes to adult stable flies; blow fly larvae are exposed in test tubes. After 24 and 48 hours, the insects are examined, and the number of dead are counted. The results of the tests are recorded as the percent of the insects which are killed.

larval blow fly = assay: Insecticidal assay in blood of sheep challenged with Haemonchus contortus, larval blow fly; type: in vivo
Method: as §5
Tests are carried out in sheep using the test method described supra in the Guinea Pig Test description. […]
^b Amount (mg/kg) times number of doses administered
^c Times postadministration at which blood is drawn

[4] = Anthelmintic activity in sheep; type: in vivo

CC[C@H]1CCC[C@H](O[C@H]2CC[C@H](N(C)C)[C@@H](C)O2)[C@@H](C)C(=O)C2=C[C@@H]3[C@@H](C=C[C@@H]4C[C@@H](O[C@@H]5O[C@@H](C)[C@H](OC)[C@@H](OC)[C@H]5OC)C[C@@H]34)[C@@H]2CC(=O)O1 [A83543A]
did not show anthelmintic activity: anthelmintic activity ([4]; single intraperitoneal dose of 50 mg/kg) | anthelmintic activity ([4]; single intraruminal dose of 50 mg/kg)
10%: inhibition at 7.5 ppm ([2]; 7.5 ppm) | Percent Insecticide Mortality (larval blow fly; 1 × 1 mg/kg IV, 5 hr, L, 24-hour exposure) | Percent Insecticide Mortality (larval blow fly; 1 × 1 mg/kg IV, 5 hr, L, 48-hour exposure) | Percent Insecticide Mortality (larval blow fly; 50 × 1 mg/kg IP, 35 min, L, 48-hour exposure) | Percent Insecticide Mortality (larval blow fly; 50 × 1 mg/kg IP, 5 hr, L, 24-hour exposure) | Percent Insecticide Mortality (larval blow fly; 50 × 1 mg/kg IP, 5 hr, L, 48-hour exposure) | Percent Insecticide Mortality (larval blow fly; 50 × 1 mg/kg IP, Day 1, L, 24-hour exposure) | Percent Insecticide Mortality (larval blow fly; 50 × 1 mg/kg IP, Day 1, L, 48-hour exposure) | Percent Insecticide Mortality (larval blow fly; 50 × 1 mg/kg IP, Day 4, L, 24-hour exposure, 5760 min) | Percent Insecticide Mortality (larval blow fly; 50 × 1 mg/kg IP, Day 5, L, 24-hour exposure, 7200 min)
0%: inhibition at 1 ppm (adult BW (boll weevil); 1.00 ppm) | inhibition at 3 ppm ([2]; 3 ppm, second series) | inhibition at 3.75 ppm ([2]; 3.75 ppm) | inhibition at 50 ppm (CLH (corn leafhopper); 50 ppm) | % Activity ASF (adult stable fly (ASF); 10 mg/kg IP, bled 30 min) | % Activity ASF (adult stable fly (ASF); 10 mg/kg IP, bled 5 hr) | % Activity ASF (adult stable fly (ASF); 10 mg/kg IP, bled 24 hr) | % Activity ASF (adult stable fly (ASF); 20 mg/kg IP, bled 30 min) | % Activity ASF (adult stable fly (ASF); 20 mg/kg IP, bled 5 hr) | % Activity ASF (adult stable fly (ASF); 20 mg/kg IP, bled 24 hr) | % Activity ASF (adult stable fly (ASF); 30 mg/kg IP, bled 5 hr) | % Activity ASF (adult stable fly (ASF); 30 mg/kg IP, bled 24 hr) | % Activity ASF (adult stable fly (ASF); 50 mg/kg oral, bled 24 hr) | mortality at 10 mg/kg (adult stable fly (ASF); Stomoxys calcitrans, in Cavia porcellus, 10 mg/kg IP) | mortality at 20 mg/kg (adult stable fly (ASF); Stomoxys calcitrans, in Cavia porcellus, 20 mg/kg IP) | Percent Insecticide Mortality (larval blow fly; 1 × 1 mg/kg IV, Day 0, L, 24-hour exposure) | Percent Insecticide Mortality (larval blow fly; 1 × 1 mg/kg IV, Day 0, L, 48-hour exposure) | Percent Insecticide Mortality (larval blow fly; 1 × 1 mg/kg IV, Day 1, L, 24-hour exposure) | Percent Insecticide Mortality (larval blow fly; 1 × 1 mg/kg IV, Day 1, L, 48-hour exposure) | Percent Insecticide Mortality (larval blow fly; 1 × 1 mg/kg IV, Day 2, L, 24-hour exposure) | Percent Insecticide Mortality (larval blow fly; 1 × 1 mg/kg IV, Day 2, L, 48-hour exposure) | Percent Insecticide Mortality (larval blow fly; 1 × 1 mg/kg IV, Day 3, L, 24-hour exposure) | Percent Insecticide Mortality (larval blow fly; 1 × 1 mg/kg IV, Day 3, L, 48-hour exposure) | Percent Insecticide Mortality (larval blow fly; 1 × 1 mg/kg IV, Day 4, L, 24-hour exposure) | Percent Insecticide Mortality (larval blow fly; 1 × 1 mg/kg IV, Day 4, L, 48-hour exposure) | Percent Insecticide Mortality (larval blow fly; 1 × 1 mg/kg IV, Day 5, L, 24-hour exposure) | Percent Insecticide Mortality (larval blow fly; 1 × 1 mg/kg IV, Day 5, L, 48-hour exposure) | Percent Insecticide Mortality (larval blow fly; 25 × 2 mg/kg IR, 35 min, L, 24-hour exposure) | Percent Insecticide Mortality (larval blow fly; 25 × 2 mg/kg IR, 35 min, L, 48-hour exposure) | Percent Insecticide Mortality (larval blow fly; 25 × 2 mg/kg IR, Day 0, L, 24-hour exposure, 0 min) | Percent Insecticide Mortality (larval blow fly; 25 × 2 mg/kg IR, Day 0, L, 48-hour exposure) | Percent Insecticide Mortality (larval blow fly; 50 × 1 mg/kg IP, 35 min, L, 24-hour exposure) | Percent Insecticide Mortality (larval blow fly; 50 × 1 mg/kg IP, Day 0, L, 24-hour exposure, 0 min) | Percent Insecticide Mortality (larval blow fly; 50 × 1 mg/kg IP, Day 0, L, 48-hour exposure) | Percent Insecticide Mortality (larval blow fly; 50 × 1 mg/kg IR, 35 min, L, 24-hour exposure) | Percent Insecticide Mortality (larval blow fly; 50 × 1 mg/kg IR, 35 min, L, 48-hour exposure) | Percent Insecticide Mortality (larval blow fly; 50 × 1 mg/kg IR, Day 0, L, 24-hour exposure, 0 min) | Percent Insecticide Mortality (larval blow fly; 50 × 1 mg/kg IR, Day 0, L, 48-hour exposure)
50%: inhibition at 15 ppm ([2]; 15 ppm) | Percent insect mortality (blow fly larvae (LBF); 0.312 ppm, 48 hr) | % Activity ASF (adult stable fly (ASF); 30 mg/kg IP, bled 30 min) | mortality at 30 mg/kg (adult stable fly (ASF); Stomoxys calcitrans, in Cavia porcellus, 30 mg/kg IP) | Percent Insecticide Mortality (larval blow fly; 25 × 2 mg/kg IR, 5 hr, L, 48-hour exposure) | Percent Insecticide Mortality (larval blow fly; 25 × 2 mg/kg IR, Day 5, L, 24-hour exposure)
30%: inhibition at 6 ppm ([2]; 6 ppm, second series) | inhibition at 100 ppm (CLH (corn leafhopper); 100 ppm) | % Activity ASF (adult stable fly (ASF); 50 mg/kg IP, bled 24 hr)
40%: % Activity ASF (adult stable fly (ASF); 50 mg/kg IP, bled 5 hr) | Percent Insecticide Mortality (larval blow fly; 50 × 1 mg/kg IR, 5 hr, L, 24-hour exposure) | Percent Insecticide Mortality (larval blow fly; 50 × 1 mg/kg IR, Day 4, L, 24-hour exposure, 5760 min) | Percent Insecticide Mortality (larval blow fly; 50 × 1 mg/kg IR, Day 4, L, 48-hour exposure)
showed activity: activity in field trials [3]
60%: Percent insect mortality (blow fly larvae (LBF); 0.625 ppm, 24 hr) | % Activity ASF (adult stable fly (ASF); 50 mg/kg oral, bled 5 hr) | mortality at 50 mg/kg (adult stable fly (ASF); Stomoxys calcitrans, in Cavia porcellus, 50 mg/kg OR (oral), 5-hr blood sample) | Percent Insecticide Mortality (larval blow fly; 25 × 2 mg/kg IR, Day 4, L, 24-hour exposure)
20%: inhibition at 5 ppm (adult BW (boll weevil); 5.00 ppm) | inhibition at 10 ppm (adult BW (boll weevil); 10.00 ppm) | Percent Insecticide Mortality (larval blow fly; 50 × 1 mg/kg IP, Day 2, L, 24-hour exposure, 2880 min) | Percent Insecticide Mortality (larval blow fly; 50 × 1 mg/kg IP, Day 2, L, 48-hour exposure) | Percent Insecticide Mortality (larval blow fly; 50 × 1 mg/kg IP, Day 3, L, 24-hour exposure, 4320 min) | Percent Insecticide Mortality (larval blow fly; 50 × 1 mg/kg IP, Day 3, L, 48-hour exposure) | Percent Insecticide Mortality (larval blow fly; 50 × 1 mg/kg IP, Day 4, L, 48-hour exposure) | Percent Insecticide Mortality (larval blow fly; 50 × 1 mg/kg IR, Day 5, L, 24-hour exposure, 7200 min)
75%: Percent Insecticide Mortality (larval blow fly; 25 × 2 mg/kg IR, Day 5, L, 48-hour exposure) | Percent Insecticide Mortality (larval blow fly; 50 × 1 mg/kg IR, 5 hr, L, 48-hour exposure)
55%: mortality at 0.5 ppm [1]
25%: Percent insect mortality (blow fly larvae (LBF); 0.312 ppm, 24 hr) | Percent Insecticide Mortality (larval blow fly; 1 × 1 mg/kg IV, 35 min, L, 24-hour exposure) | Percent Insecticide Mortality (larval blow fly; 1 × 1 mg/kg IV, 35 min, L, 48-hour exposure) | Percent Insecticide Mortality (larval blow fly; 25 × 2 mg/kg IR, 5 hr, L, 24-hour exposure) | Percent Insecticide Mortality (larval blow fly; 50 × 1 mg/kg IP, Day 5, L, 48-hour exposure) | Percent Insecticide Mortality (larval blow fly; 50 × 1 mg/kg IR, Day 5, L, 48-hour exposure)
80%: Percent Insecticide Mortality (larval blow fly; 50 × 1 mg/kg IR, Day 3, L, 24-hour exposure, 4320 min)
90%: inhibition at 200 ppm (CLH (corn leafhopper); 200 ppm) | Percent insect mortality (blow fly larvae (LBF); 0.625 ppm, 48 hr) | Percent Insecticide Mortality (larval blow fly; 25 × 2 mg/kg IR, Day 2, L, 24-hour exposure) | Percent Insecticide Mortality (larval blow fly; 25 × 2 mg/kg IR, Day 3, L, 24-hour exposure) | Percent Insecticide Mortality (larval blow fly; 25 × 2 mg/kg IR, Day 4, L, 48-hour exposure) | Percent Insecticide Mortality (larval blow fly; 50 × 1 mg/kg IR, Day 1, L, 24-hour exposure) | Percent Insecticide Mortality (larval blow fly; 50 × 1 mg/kg IR, Day 2, L, 24-hour exposure, 2880 min)
100%: mortality at 1 ppm [1] | mortality at 5 ppm [1] | mortality at 10 ppm [1] | inhibition at 50 ppm (adult BW (boll weevil); 50.00 ppm) | inhibition at 100 ppm (adult BW (boll weevil); 100.0 ppm) | inhibition at 30 ppm ([2]; 30 ppm) | Percent insect mortality (blow fly larvae (LBF); 1.25 ppm, 24 hr) | Percent insect mortality (blow fly larvae (LBF); 1.25 ppm, 48 hr) | Percent insect mortality (blow fly larvae (LBF); 2.5 ppm, 24 hr) | Percent insect mortality (blow fly larvae (LBF); 2.5 ppm, 48 hr) | Percent insect mortality (blow fly larvae (LBF); 5 ppm, 24 hr) | Percent insect mortality (blow fly larvae (LBF); 5 ppm, 48 hr) | Percent insect mortality (blow fly larvae (LBF); 10 ppm, 24 hr) | Percent insect mortality (blow fly larvae (LBF); 10 ppm, 48 hr) | % Activity ASF (adult stable fly (ASF); 50 mg/kg IP, bled 30 min) | mortality at 50 mg/kg (adult stable fly (ASF); Stomoxys calcitrans, in Cavia porcellus, 50 mg/kg IP) | Percent Insecticide Mortality (larval blow fly; 25 × 2 mg/kg IR, Day 1, L, 24-hour exposure) | Percent Insecticide Mortality (larval blow fly; 25 × 2 mg/kg IR, Day 1, L, 48-hour exposure) | Percent Insecticide Mortality (larval blow fly; 25 × 2 mg/kg IR, Day 2, L, 48-hour exposure) | Percent Insecticide Mortality (larval blow fly; 25 × 2 mg/kg IR, Day 3, L, 48-hour exposure) | Percent Insecticide Mortality (larval blow fly; 50 × 1 mg/kg IR, Day 1, L, 48-hour exposure) | Percent Insecticide Mortality (larval blow fly; 50 × 1 mg/kg IR, Day 2, L, 48-hour exposure) | Percent Insecticide Mortality (larval blow fly; 50 × 1 mg/kg IR, Day 3, L, 48-hour exposure)
